Counter-ions that a name gives are not always drawn.

From patent publication US11046699B2, “Pyrazolo-pyrimidin-amino-cycloalkyl compounds and their therapeutic uses” (RAPT THERAPEUTICS, INC., priority 2018, dated 2021) come the findings set out here.

The target in one test is GCN2 (Homo sapiens, UniProt Q9P2K8). Briefly: GCN2 enzymatic endpoint assay: phosphorylation of GFP-eIF2α measured by TR-FRET (Lanthascreen). Format: biochemical. Conditions: GCN2 biochemical IC50; 4 nM GCN2, 2 μM ATP, 80 nM GFP-eIF2α, 90 min RT; read-out: GCN2 activity. Summed up: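 Kinase activity is measured as phosphorylation of GFP-labelled eIF2α (80 nM) with ATP at 2 μM. Incubation runs 90 minutes at room temperature before EDTA quench and terbium-antibody detection.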
Chain of GCN2 (Q9P2K8 whole entry): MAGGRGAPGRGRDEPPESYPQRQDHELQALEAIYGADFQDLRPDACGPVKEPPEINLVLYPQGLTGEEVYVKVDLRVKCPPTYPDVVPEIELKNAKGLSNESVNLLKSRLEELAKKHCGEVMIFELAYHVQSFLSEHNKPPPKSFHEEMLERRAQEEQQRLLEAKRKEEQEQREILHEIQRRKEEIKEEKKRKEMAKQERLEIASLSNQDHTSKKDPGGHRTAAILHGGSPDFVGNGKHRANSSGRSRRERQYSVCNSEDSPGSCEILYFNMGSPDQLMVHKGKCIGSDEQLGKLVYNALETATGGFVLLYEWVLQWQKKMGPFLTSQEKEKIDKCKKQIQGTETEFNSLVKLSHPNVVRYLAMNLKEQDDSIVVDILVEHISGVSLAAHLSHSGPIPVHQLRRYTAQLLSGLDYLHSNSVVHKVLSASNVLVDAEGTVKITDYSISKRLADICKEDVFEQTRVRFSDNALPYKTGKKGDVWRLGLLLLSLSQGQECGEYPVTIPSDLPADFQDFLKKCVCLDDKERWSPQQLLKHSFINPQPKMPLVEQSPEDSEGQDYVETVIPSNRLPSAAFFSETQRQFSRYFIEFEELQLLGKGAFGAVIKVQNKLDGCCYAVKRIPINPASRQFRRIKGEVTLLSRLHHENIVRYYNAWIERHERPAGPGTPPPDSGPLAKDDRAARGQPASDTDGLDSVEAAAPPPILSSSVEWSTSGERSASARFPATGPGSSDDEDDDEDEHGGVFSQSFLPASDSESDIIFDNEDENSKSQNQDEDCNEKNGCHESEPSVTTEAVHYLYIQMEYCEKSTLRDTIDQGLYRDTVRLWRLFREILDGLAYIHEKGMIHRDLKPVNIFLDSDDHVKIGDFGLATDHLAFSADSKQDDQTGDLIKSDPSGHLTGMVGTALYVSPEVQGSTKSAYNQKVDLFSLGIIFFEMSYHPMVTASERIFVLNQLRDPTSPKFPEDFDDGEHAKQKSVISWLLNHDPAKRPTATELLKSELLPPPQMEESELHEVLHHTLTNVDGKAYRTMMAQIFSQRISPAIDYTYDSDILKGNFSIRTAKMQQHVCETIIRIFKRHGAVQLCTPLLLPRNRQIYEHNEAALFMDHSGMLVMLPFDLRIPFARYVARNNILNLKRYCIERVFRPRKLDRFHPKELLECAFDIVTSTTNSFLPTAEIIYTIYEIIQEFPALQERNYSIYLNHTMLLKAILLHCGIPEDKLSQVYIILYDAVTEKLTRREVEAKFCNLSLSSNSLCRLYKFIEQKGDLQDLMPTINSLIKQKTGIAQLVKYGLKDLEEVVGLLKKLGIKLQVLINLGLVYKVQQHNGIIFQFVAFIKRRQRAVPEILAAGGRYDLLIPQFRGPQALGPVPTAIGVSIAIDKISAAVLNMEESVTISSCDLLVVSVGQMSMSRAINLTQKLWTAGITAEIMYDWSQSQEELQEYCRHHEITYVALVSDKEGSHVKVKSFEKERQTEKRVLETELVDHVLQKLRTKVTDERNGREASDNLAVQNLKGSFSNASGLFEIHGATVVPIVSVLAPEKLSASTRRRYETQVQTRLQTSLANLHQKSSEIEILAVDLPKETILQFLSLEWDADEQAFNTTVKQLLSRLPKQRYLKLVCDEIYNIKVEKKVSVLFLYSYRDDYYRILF
For orientation: In TR-FRET formats the signal depends on donor and acceptor labels being close together.
`CNC(=O)[C@]1(C)CC[C@@H](Nc2ncc3c(Br)nn(-c4ccc(N5CCOCC5)c(C#N)c4)c3n2)C1` [Example 59, (1R,3R)-3-((3-bromo-1-(3-cyano-4-morpholinophenyl)-1H-pyrazolo[3,4-d]pyrimidin-6-yl)amino)-N,1-dimethylcyclopentane-1-carboxamide hydrochloride]: the IC50 is 25 to 200 nM.

As for `CNC(=O)[C@]1(C)CC[C@@H](Nc2ncc3c(Br)nn(-c4ccc(-c5nnc(C)s5)cc4)c3n2)C1` [Example 38, (1R,3R)-3-((3-bromo-1-(4-(5-methyl-1,3,4-thiadiazol-2-yl)phenyl)-1H-pyrazolo[3,4-d]pyrimidin-6-yl)amino)-N,1-dimethylcyclopentane-1-carboxamide], the IC50 was under 25 nM.

The test is the same for the next values; noted with them: tested as described in Example 77; compound and/or hydrochloride, dihydrochloride or trifluoroacetic acid salt; read-out: IC 50 Activity.
For `CC1(C(=O)O)CN(C(=O)[C@@H]2CC[C@@H](Nc3ncc4c(Br)nn(-c5cc(F)c6ncccc6c5)c4n3)C2)C1` [1-((1R,3R)-3-((3-bromo-1-(8-fluoroquinolin-6-yl)-1H-pyrazolo[3,4-d]pyrimidin-6-yl)amino)cyclopentane-1-carbonyl)-3-methylazetidine-3-carboxylic acid], the IC50 lay in the range of 25 to 200 nM.

With `CCc1cc(-n2nc(Br)c3cnc(N[C@@H]4CC[C@@](C)(C(=O)NC)C4)nc32)ccc1-c1nnc(C)s1`, the IC50 was 25 to 200 nM.

For the compound `O=C1CN(C(=O)[C@@H]2CC[C@@H](Nc3ncc4c(Br)nn(-c5cc(F)c6ncccc6c5)c4n3)C2)CN1CC1CC1` [1-[(1R,3R)-3-[[3-bromo-1-(8-fluoro-6-quinolyl)pyrazolo[3,4-d]pyrimidin-6-yl]amino]cyclopentanecarbonyl]-3-(cyclopropylmethyl)imidazolidin-4-one], the IC50 lay within 25 to 200 nM.

For the compound `CNC(=O)[C@]1(C)CC[C@@H](Nc2ncc3c(Br)nn(-c4ccc5ncn(CCCN)c(=O)c5c4)c3n2)C1`, the IC50 is 25 to 200 nM.

With `CNC(=O)[C@]1(C)CC[C@@H](Nc2ncc3c(Br)nn(-c4ccc(-c5noc(C)n5)cc4)c3n2)C1` [(1R,3R)-3-[[3-bromo-1-[4-(5-methyl-1,2,4-oxadiazol-3-yl)phenyl]pyrazolo [3,4-d]pyrimidin-6-yl]amino]-N,1-dimethyl-cyclopentanecarboxamide], the IC50 lay within 25 to 200 nM.

`CNC(=O)[C@]1(C)CC[C@@H](Nc2ncc3c(Br)nn(-c4ccc(-c5ncco5)c(C(C)(C)CN)c4)c3n2)C1` [(1R,3R)-3-[[1-[3-(2-amino-1,1-dimethyl-ethyl)-4-oxazol-2-yl-phenyl]-3-bromo-pyrazolo[3,4-d]pyrimidin-6-yl]amino]-N,1-dimethyl-cyclopentanecarboxamide]: the IC50 lay within 25 to 200 nM.

For `CNC(=O)[C@]1(C)CC[C@@H](Nc2ncc3c(Br)nn(-c4ccc5c(c4)c(=O)n(C)c(=O)n5C)c3n2)C1`, the IC50 is under 25 nM.

Take `CN1CN(C(=O)C2(C)CC[C@@H](Nc3ncc4c(Br)nn(-c5cc(F)c6ncccc6c5)c4n3)C2)CC1=O` (stereo partly drawn) [1-[(3R)-3-[[3-bromo-1-(8-fluoro-6-quinolyl)pyrazolo[3,4-d]pyrimidin-6-yl]amino]-1-methyl-cyclopentanecarbonyl]-3-methyl-imidazolidin-4-one]: the IC50 was under 25 nM.

Turning to `CNC(=O)[C@]1(C)CC[C@@H](Nc2ncc3c(Br)nn(-c4ccc(-c5nnc(C(C)(C)O)o5)cc4)c3n2)C1` [(1R,3R)-3-[[3-bromo-1-[4-[5-(1-hydroxy-1-methyl-ethyl)-1,3,4-oxadiazol-2-yl]phenyl]pyrazolo[3,4-d]pyrimidin-6-yl]amino]-N,1-dimethyl-cyclopentanecarboxamide], the IC50 was 25 to 200 nM.

Take `CNC(=O)[C@]1(C)CC[C@@H](Nc2ncc3c(Br)nn(-c4ccc5ncc(NC(=O)C6CNC6)cc5c4)c3n2)C1` [N-[6-[3-bromo-6-[[(1R,3R)-3-methyl-3-(methylcarbamoyl)cyclopentyl]amino]pyrazolo[3,4-d]pyrimidin-1-yl]-3-quinolyl]azetidine-3-carboxamide]: the IC50 is under 25 nM.

For the compound `CNC(=O)[C@]1(C)CC[C@@H](Nc2ncc3c(Br)nn(-c4ccc(-c5ncco5)c(NC(=O)C5CNC5)c4)c3n2)C1` [N-[5-[3-bromo-6-[[(1R,3R)-3-methyl-3-(methylcarbamoyl)cyclopentyl]amino]pyrazolo[3,4-d]pyrimidin-1-yl]-2-oxazol-2-yl-phenyl]azetidine-3-carboxamide], the IC50 was under 25 nM.

`CNC(=O)[C@]1(C)CC[C@@H](Nc2ncc3c(Br)nn(-c4ccc5nc(N)ncc5c4)c3n2)C1`: the IC50 lay within 25 to 200 nM.

For `O=C([C@@H]1CC[C@@H](Nc2ncc3c(Br)nn(-c4cc(F)c5ncccc5c4)c3n2)C1)N1CCNC(C(F)(F)F)C1` (stereo partly drawn) [[(1R,3R)-3-[[3-bromo-1-(8-fluoro-6-quinolyl)pyrazolo[3,4-d]pyrimidin-6-yl]amino]cyclo-pentyl]-[3-(trifluoromethyl)piperazin-1-yl] methanone], the IC50 fell in the range of 25 to 200 nM.

For the compound `CNC(=O)[C@]1(C)CC[C@@H](Nc2ncc3c(Br)nn(-c4cc(CCN)c5c(c4)CCO5)c3n2)C1` [(1R,3R)-3-[[1-[7-(2-aminoethyl)-2,3-dihydrobenzofuran-5-yl]-3-bromo-pyrazolo [3,4-d]pyrimidin-6-yl]amino]-N,1-dimethyl-cyclopentanecarboxamide], the IC50 lay in the range of 25 to 200 nM.

As for `CNC(=O)[C@]1(CC(F)F)CC[C@@H](Nc2ncc3c(Br)nn(-c4ccc(-c5nnc(C)o5)cc4)c3n2)C1` [(1R,3R)-3-[[3-bromo-1-[4-(5-methyl-1,3,4-oxadiazol-2-yl)phenyl]pyrazolo[3,4-d]pyrimidin-6-yl]amino]-1-(2,2-difluoroethyl)-N-methyl-cyclopentanecarboxamide], the IC50 lay in the range of 25 to 200 nM.

Take `CNC(=O)[C@]1(C)CC[C@@H](Nc2ncc3c(Br)nn(-c4ccc5c(c4)CCN(C(=O)C4CNC4)C5)c3n2)C1` [(1R,3R)-3-[[1-[2-(azetidine-3-carbonyl)-3,4-dihydro-1H-isoquinolin-6-yl]-3-bromo-pyrazolo[3,4-d]pyrimidin-6-yl]amino]-N,1-dimethyl-cyclopentanecarboxamide]: the IC50 is 25 to 200 nM.

For the compound `CNC(=O)C1(C#N)CC[C@@H](Nc2ncc3c(Br)nn(-c4cc(Cl)cc([C@H](C)N)c4)c3n2)C1` (stereo partly drawn) [(3R)-3-[[1-[3-[(1S)-1-aminoethyl]-5-chloro-phenyl]-3-bromo-pyrazolo[3,4-d]pyrimidin-6-yl]amino]-1-cyano-N-methyl-cyclo-pentanecarboxamide; 2,2,2-trifluoroacetic acid], the IC50 lay within 25 to 200 nM.

Take `CNC(=O)[C@]1(C)CCC(Nc2ncc3c(Br)nn(-c4ccc5nn(CCN)cc5c4)c3n2)C1` (stereo partly drawn) [(1R)-3-[[1-[2-(2-aminoethyl)indazol-5-yl]-3-bromo-pyrazolo[3,4-d]pyrimidin-6-yl]amino]-N,1-dimethyl-cyclopentane-carboxamide]: the IC50 is 25 to 200 nM.

Consider `CNC(=O)[C@]1(C)CC[C@@H](Nc2ncc3c(Br)nn(-c4cc(CCC(=O)O)c5ncccc5c4)c3n2)C1` [3-[6-[3-bromo-6-[[(1R,3R)-3-methyl-3-(methylcarbamoyl)cyclopentyl]amino]pyrazolo[3,4-d]pyrimidin-1-yl]-8-quinolyl]propanoic acid], for which the IC50 was under 25 nM.

Turning to `CNC(=O)[C@]1(C)CC[C@@H](Nc2ncc3c(Br)nn(-c4ccc(-c5ncco5)c([C@H]5CCNC5)c4)c3n2)C1` [(1R,3R)-3-[[3-bromo-1-[4-oxazol-2-yl-3-[(3R)-pyrrolidin-3-yl]phenyl]pyrazolo[3,4-d]pyrimidin-6-yl]amino]-N,1-dimethyl-cyclopentane-carboxamide], the IC50 lay within 25 to 200 nM.

As for `N#Cc1cc(-n2nc(Br)c3cnc(N[C@@H]4CC[C@@H](C(=O)N5CCS(=N)(=O)CC5)C4)nc32)cc2cccnc12`, the IC50 is under 25 nM.

For the compound `CNC(=O)[C@]1(C)CC[C@@H](Nc2ncc3c(Br)nn(-c4ccc(-c5nnc(C)s5)c(CCCN)c4)c3n2)C1` [(1R,3R)-3-[[1-[3-(3-aminopropyl)-4-(5-methyl-1,3,4-thiadiazol-2-yl)phenyl]-3-bromopyrazolo[3,4-d]pyrimidin-6-yl]amino]-N,1-dimethyl-cyclopentanecarboxamide], the IC50 is 25 to 200 nM.

Take `CC1(C(=O)NCC(F)(F)F)CC[C@@H](Nc2ncc3c(Br)nn(-c4cc(F)c5ncccc5c4)c3n2)C1` (stereo partly drawn) [(3R)-3-[[3-bromo-1-(8-fluoro-6-quinolyl)pyrazolo[3,4-d]pyrimidin-6-yl]amino]-1-methyl-N-(2,2,2-trifluoroethyl)cyclo-pentanecarboxamide]: the IC50 was in the range of 25 to 200 nM.

On to `CNC(=O)[C@]1(C)CC[C@@H](Nc2ncc3c(Br)nn(-c4cnc5c(CCN)cccc5c4)c3n2)C1` [(1R,3R)-3-[[1-[8-(2-aminoethyl)-3-quinolyl]-3-bromo-pyrazolo[3,4-d]pyrimidin-6-yl]amino]-N,1-dimethyl-cyclopentane-carboxamide], for which the IC50 fell in the range of 25 to 200 nM.

With `C[C@@H]1CN(C(=O)[C@@H]2CC[C@@H](Nc3ncc4c(Br)nn(-c5ccc6ncccc6c5)c4n3)C2)C[C@H](C)O1` [((1R,3R)-3-((3-bromo-1-(quinolin-6-yl)-1H-pyrazolo[3,4-d]pyrimidin-6-yl)amino)cyclopentyl)((2S,6R)-2,6-dimethylmorpholino) methanone], the IC50 fell in the range of 200 to 500 nM.

Take `CNC(=O)[C@]1(C)CC[C@@H](Nc2ncc3c(Br)nn(-c4ccc5ncc(NC(=O)CCOC)cc5c4)c3n2)C1` [(1R,3R)-3-[[3-bromo-1-[3-(3-methoxy-propanoylamino)-6-quinolyl]pyrazolo[3,4-d]pyrimidin-6-yl]amino]-N,1-dimethyl-cyclopentanecarboxamide]: the IC50 is 25 to 200 nM.

For `CNC(=O)C1(CCC#N)CC[C@@H](Nc2ncc3c(Br)nn(-c4ccc(-c5nnc(C)s5)cc4)c3n2)C1` (stereo partly drawn) [(3R)-3-[[3-bromo-1-[4-(5-methyl-1,3,4-thiadiazol-2-yl)phenyl]pyrazolo[3,4-d]pyrimidin-6-yl]amino]-1-(2-cyanoethyl)-N-methyl-cyclopentanecarboxamide], the IC50 was in the range of 25 to 200 nM.

`CNC(=O)[C@]1(C)CCC(Nc2ncc3c(Br)nn(-c4ccc5c(c4)CNC5=O)c3n2)C1` (stereo partly drawn) [(1R)-3-[[3-bromo-1-(1-oxoisoindolin-5-yl)pyrazolo[3,4-d]pyrimidin-6-yl]amino]-N,1-dimethyl-cyclopentanecarboxamide]: the IC50 lay in the range of 25 to 200 nM.
